According to article PMC8296573, “Synthesis and Biological Evaluation of Fingolimod Derivatives as Antibacterial Agents” (ACS Omega, 2021):
Converted amounts (≈) assume the structure as drawn. Like-named read-outs stand apart in the source and are kept apart here.

What was measured:
P. aeruginosa ATCC 9027 = assay: Antibacterial activity, pre-exposure; format: cell-based, Pseudomonas aeruginosa; conditions: for Average inhibition %, biofilms viability / Average inhibition %, planktonic cells viability / inhibition at 50 µM / inhibition at 100 µM / inhibition at 150 µM / inhibition at 200 µM: P. aeruginosa ATCC 9027, pre-exposure, ± SD; for MIC / inhibition at 50 µM / inhibition at 100 µM / inhibition at 150 µM / inhibition at 200 µM: Pseudomonas aeruginosa; for inhibition at 50 µM / inhibition at 100 µM / inhibition at 150 µM / inhibition at 200 µM: ATCC9027
Experimental: (§1) The antimicrobial activity was assessed in a similar way for the initial screening and the dose–response evaluation against different bacterial strains. With the exception of the post-exposure experiment, the compounds were added to the wells along with the bacteria to test the ability of compounds to prevent bacterial growth and biofilm formation (pre-exposure). The compounds were diluted in DMSO and plated directly in 96-well plates before adding the bacterial culture, and plates were incubated for 18 h under aerobic conditions at 37 °C with shaking (220 rpm). The antibacterial activity of the compounds was assessed on planktonic cells and biofilms separately using two different measurements for each: optical density (turbidity) and resazurin reduction (viability) on planktonic cells and resazurin followed by a crystal violet staining assay (total biomass) on biofilms, as described in the following sections.
(§2) The resazurin staining was performed according to the protocol previously optimized with a few modifications.[46] Briefly, the planktonic solution was first transferred into a new 96-well plate and the OD of the planktonic solution was measured using a Varioskan LUX Multimode microplate reader (Thermo Scientific, Vantaa, Finland). Then, 10 μL of a 400 μM resazurin (R7017, Sigma-Aldrich, St. Louis, MO) diluted in phosphate-buffered saline (PBS) (Thermo Fisher Scientific, MA) was added to the wells (for a final resazurin concentration of 20 μM). The plate was incubated in the dark with shaking (220 rpm) for about 3–10 min at room temperature with S. aureus and A. baumannii (until the bacteria controls turned pink) or for 20 min at 37 °C with P. aeruginosa. Fluorescence was measured at λex = 560 nm and λem = 590 nm using the top optics of the Varioskan LUX Multimode microplate reader. The planktonic plate was then discarded. The original challenge plate containing the biofilms was washed once with PBS, and 200 μL of a 20 μM resazurin solution was added to the wells. The plate was incubated in the dark at 37 °C with shaking (220 rpm) for 30 min with S. aureus, 60 min with A. baumannii, and 90 min with P. aeruginosa. Fluorescence was measured as described for the planktonic solution. The biofilms were next treated with crystal violet staining.
(§3) After removing the resazurin solution from the plate, biofilms were fixed with ethanol 100% for 15 min at room temperature. Ethanol was then removed, and the biofilms were left to air-dry completely at RT. Crystal violet, diluted to 1:100 in deionized water from the 2.3% commercial solution (HT90132, Sigma-Aldrich, St. Louis, MO), was added to the wells and, after a 5 min incubation with the dye, the biofilms were washed twice with deionized water and left to air-dry for about 10 min. The dye was solubilized in ethanol 100% for 1 h, and absorbance was measured at 595 nm using a Multiskan Sky microplate spectrophotometer (Thermo Scientific, Vantaa, Finland).

S. aureus ATCC 25923 [1] = assay: Antibacterial activity, pre-exposure (planktonic cells and biofilm formation); format: cell-based, Staphylococcus aureus; conditions: for MIC / inhibition at 5 µM / inhibition at 10 µM / inhibition at 15 µM / inhibition at 25 µM: Staphylococcus aureus, ATCC25923; for inhibition at 5 µM / inhibition at 10 µM / inhibition at 15 µM / inhibition at 25 µM / Average inhibition %, biofilms viability / Average inhibition %, planktonic cells viability: pre-exposure, ± SD
In short: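 Compounds are diluted in DMSO and plated, then bacteria are added to test prevention of growth and biofilm formation. After 18 h at 37 °C with shaking, planktonic OD and resazurin fluorescence are measured. Washed biofilms receive resazurin (30 min S. aureus, 60 min A. baumannii, 90 min P. aeruginosa, 37 °C), then crystal violet.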

S. aureus ATCC 25923 [2] = assay: Antibacterial activity, post-exposure on preformed 18-h-old biofilms; format: cell-based, Staphylococcus aureus; conditions: ± SD; for inhibition at 25 µM / inhibition at 50 µM / inhibition at 100 µM / inhibition at 200 µM: Staphylococcus aureus; for inhibition at 25 µM: ATCC25923, 25 µM; for inhibition at 50 µM: ATCC25923, 50 µM; for inhibition at 100 µM: ATCC25923, 100 µM; for inhibition at 200 µM: ATCC25923, 200 µM
Experimental: For the post-exposure experiment, bacteria were grown with no compounds in the same conditions for 18 h, after which the media was changed, and compounds were added on the preformed biofilms. The plates were then incubated in the same conditions for an additional 24 h before proceeding to the staining assays.
as §2, §3

A. baumannii NCTC 13423 = assay: Antibacterial activity, pre-exposure; format: cell-based, Acinetobacter baumannii; conditions: for Average inhibition %, biofilms viability / Average inhibition %, planktonic cells viability / inhibition at 10 µM / inhibition at 15 µM / inhibition at 25 µM / inhibition at 50 µM: A. baumannii NCTC 13423, pre-exposure, ± SD; for inhibition at 10 µM / inhibition at 15 µM / inhibition at 25 µM / inhibition at 50 µM / MIC: Acinetobacter baumannii, NCTC13423
Experimental: as §1, §2, §3

[3] = 50 µM, read-out: Average inhibition %, biofilms biomass
[4] = 50 µM, read-out: Average inhibition %, planktonic cells turbidity
[5] = 10 µM, read-out: Average inhibition %, biofilms biomass
[6] = 10 µM, read-out: Average inhibition %, planktonic cells turbidity
[7] = 15 µM, read-out: Average inhibition %, biofilms biomass
[8] = 15 µM, read-out: Average inhibition %, planktonic cells turbidity
[9] = 25 µM, read-out: Average inhibition %, biofilms biomass
[10] = 25 µM, read-out: Average inhibition %, planktonic cells turbidity
[11] = read-out: Average inhibition %, biofilms biomass
[12] = read-out: Average inhibition %, planktonic cells turbidity

CCCCCCCCCCc1ccc(CCC(N)(CO)CO)nc1 [Compound 62, 2-Amino-2-[2-(5-decylpyridin-2-yl)ethyl]propane-1,3-diol]
Average inhibition %, biofilms viability (P. aeruginosa ATCC 9027; 50 µM): 13.5 ± 11.7% | Average inhibition %, planktonic cells viability (P. aeruginosa ATCC 9027; 50 µM): 18.7 ± 18.1% | Average inhibition %, biofilms viability (P. aeruginosa ATCC 9027; 100 µM): 13.6 ± 3.2% | Average inhibition %, planktonic cells viability (P. aeruginosa ATCC 9027; 100 µM): 39.6 ± 45.8% | Average inhibition %, biofilms viability (P. aeruginosa ATCC 9027; 150 µM): 27.7 ± 14.8% | Average inhibition %, planktonic cells viability (P. aeruginosa ATCC 9027; 150 µM): 76.3 ± 19.2% | Average inhibition %, biofilms viability (P. aeruginosa ATCC 9027; 200 µM): 61.8 ± 34.8% | Average inhibition %, planktonic cells viability (P. aeruginosa ATCC 9027; 200 µM): 94.7 ± 4.6% | MIC (P. aeruginosa ATCC 9027; ATCC9027, pre-exposure, Inactive = no activity up to 200 μM, > = some inhibition but no MIC reached, read-out: MIC P. aeruginosa ATCC 9027): > 200 µM | MIC (P. aeruginosa ATCC 9027; ATCC9027, supplementary molecular formula strings sheet, read-out: MIC (P. aeruginosa)): > 200 µM | inhibition at 50 µM (P. aeruginosa ATCC 9027; [3]): 19.7 ± 9.7% | inhibition at 50 µM (P. aeruginosa ATCC 9027; [4]): 35.6 ± 9.3% | inhibition at 100 µM (P. aeruginosa ATCC 9027; 100 µM, read-out: Average inhibition %, biofilms biomass): 18.6 ± 19.2% | inhibition at 100 µM (P. aeruginosa ATCC 9027; 100 µM, read-out: Average inhibition %, planktonic cells turbidity): 58 ± 23% | inhibition at 150 µM (P. aeruginosa ATCC 9027; 150 µM, read-out: Average inhibition %, biofilms biomass): 21 ± 3.9% | inhibition at 150 µM (P. aeruginosa ATCC 9027; 150 µM, read-out: Average inhibition %, planktonic cells turbidity): 84.5 ± 4.1% | inhibition at 200 µM (P. aeruginosa ATCC 9027; 200 µM, read-out: Average inhibition %, biofilms biomass): 38.5 ± 47.1% | inhibition at 200 µM (P. aeruginosa ATCC 9027; 200 µM, read-out: Average inhibition %, planktonic cells turbidity): 92.5 ± 5% | MIC (S. aureus ATCC 25923 [1]; lowest concentration with no visible growth (>90% inhibition of turbidity and viability of planktonic cells), 18 h, read-out: MIC S. aureus ATCC 25923): 15 µM (≈ 5.05 µg/mL) | inhibition at 5 µM (S. aureus ATCC 25923 [1]; 5 µM, read-out: Average inhibition %, biofilms biomass): 34.5 ± 10.1% | inhibition at 5 µM (S. aureus ATCC 25923 [1]; 5 µM, read-out: Average inhibition %, planktonic cells turbidity): 9.5 ± 10.5% | inhibition at 10 µM (S. aureus ATCC 25923 [1]; [5]): 46 ± 8% | inhibition at 10 µM (S. aureus ATCC 25923 [1]; [6]): 15.6 ± 7.5% | inhibition at 15 µM (S. aureus ATCC 25923 [1]; [7]): 91.8 ± 5.5% | inhibition at 15 µM (S. aureus ATCC 25923 [1]; [8]): 85.8 ± 12.4% | inhibition at 25 µM (S. aureus ATCC 25923 [1]; [9]): 94.8 ± 1.6% | inhibition at 25 µM (S. aureus ATCC 25923 [1]; [10]): 99.1 ± 0.7% | MIC (S. aureus ATCC 25923 [1]; read-out: MIC (S. aureus)): 15 µM (≈ 5.05 µg/mL) | MIC S. aureus ATCC 25923 (S. aureus ATCC 25923 [1]; lowest concentration with no visible growth (>90% inhibition of turbidity and viability of planktonic cells), 18 h): same MIC as fingolimod | Average inhibition %, biofilms viability (S. aureus ATCC 25923 [1]; 5 µM): 23.3 ± 7.1% | Average inhibition %, planktonic cells viability (S. aureus ATCC 25923 [1]; 5 µM): 0 ± 0% | Average inhibition %, biofilms viability (S. aureus ATCC 25923 [1]; 10 µM): 35.7 ± 5.8% | Average inhibition %, planktonic cells viability (S. aureus ATCC 25923 [1]; 10 µM): 0 ± 0% | Average inhibition %, biofilms viability (S. aureus ATCC 25923 [1]; 15 µM): 95.2 ± 3.8% | Average inhibition %, planktonic cells viability (S. aureus ATCC 25923 [1]; 15 µM): 92.4 ± 6.5% | Average inhibition %, biofilms viability (S. aureus ATCC 25923 [1]; 25 µM): 99.6 ± 0.2% | Average inhibition %, planktonic cells viability (S. aureus ATCC 25923 [1]; 25 µM): 100 ± 0.1% | Average inhibition %, biofilms viability (S. aureus ATCC 25923 [2]; 25 µM): 12.6 ± 12.7% | Average inhibition %, planktonic cells viability (S. aureus ATCC 25923 [2]; 25 µM): 0 ± 0% | Average inhibition %, biofilms viability (S. aureus ATCC 25923 [2]; 50 µM): 37.2 ± 4.9% | Average inhibition %, planktonic cells viability (S. aureus ATCC 25923 [2]; 50 µM): 0 ± 0% | Average inhibition %, biofilms viability (S. aureus ATCC 25923 [2]; 100 µM): 56.4 ± 12% | Average inhibition %, planktonic cells viability (S. aureus ATCC 25923 [2]; 100 µM): 55.8 ± 42.1% | Average inhibition %, biofilms viability (S. aureus ATCC 25923 [2]; 200 µM): 99.3 ± 0.3% | Average inhibition %, planktonic cells viability (S. aureus ATCC 25923 [2]; 200 µM): 100.1 ± 0.1% | inhibition at 25 µM (S. aureus ATCC 25923 [2]; [11]): 43.1 ± 11% | inhibition at 25 µM (S. aureus ATCC 25923 [2]; [12]): 15.7 ± 12.5% | inhibition at 50 µM (S. aureus ATCC 25923 [2]; [11]): 63.9 ± 10.9% | inhibition at 50 µM (S. aureus ATCC 25923 [2]; [12]): 16.7 ± 24.2% | inhibition at 100 µM (S. aureus ATCC 25923 [2]; [11]): 76.2 ± 5.6% | inhibition at 100 µM (S. aureus ATCC 25923 [2]; [12]): 57.6 ± 29.3% | inhibition at 200 µM (S. aureus ATCC 25923 [2]; [11]): 80.8 ± 3.8% | inhibition at 200 µM (S. aureus ATCC 25923 [2]; [12]): 89.9 ± 1.7% | Average inhibition %, biofilms viability (A. baumannii NCTC 13423; 10 µM): 40 ± 33.9% | Average inhibition %, planktonic cells viability (A. baumannii NCTC 13423; 10 µM): 37.7 ± 25.3% | Average inhibition %, biofilms viability (A. baumannii NCTC 13423; 15 µM): 100.5 ± 1% | Average inhibition %, planktonic cells viability (A. baumannii NCTC 13423; 15 µM): 99.8 ± 0.4% | Average inhibition %, biofilms viability (A. baumannii NCTC 13423; 25 µM): 101.2 ± 1.3% | Average inhibition %, planktonic cells viability (A. baumannii NCTC 13423; 25 µM): 99.7 ± 0.3% | Average inhibition %, biofilms viability (A. baumannii NCTC 13423; 50 µM): 101.3 ± 1.2% | Average inhibition %, planktonic cells viability (A. baumannii NCTC 13423; 50 µM): 99.7 ± 0.2% | inhibition at 10 µM (A. baumannii NCTC 13423; [5]): 21.3 ± 18.9% | inhibition at 10 µM (A. baumannii NCTC 13423; [6]): 46 ± 39.6% | inhibition at 15 µM (A. baumannii NCTC 13423; [7]): 85.4 ± 2% | inhibition at 15 µM (A. baumannii NCTC 13423; [8]): 99.3 ± 0.9% | inhibition at 25 µM (A. baumannii NCTC 13423; [9]): 83.1 ± 3% | inhibition at 25 µM (A. baumannii NCTC 13423; [10]): 99.2 ± 0.9% | inhibition at 50 µM (A. baumannii NCTC 13423; [3]): 79 ± 9.4% | inhibition at 50 µM (A. baumannii NCTC 13423; [4]): 98.8 ± 0.9% | MIC (A. baumannii NCTC 13423; pre-exposure, Inactive = no activity up to 50 μM, > = some inhibition but no MIC reached, read-out: MIC A. baumannii NCTC 13423): 15 µM (≈ 5.05 µg/mL) | MIC (A. baumannii NCTC 13423; supplementary molecular formula strings sheet, read-out: MIC (A. baumannii)): 15 µM (≈ 5.05 µg/mL)
